Experimental data as given in US10189785B2, “Heterocyclic compound” (TAKEDA PHARMACEUTICAL COMPANY LIMITED, priority 2015, dated 2019).

Assays:
[1] = biological target: T1, SPT (SPT2-expressing membrane fraction: human SPT1, human SPT2 and human ssSPTa) (Homo sapiens, UniProt O15269+O15270); assay: SPT enzyme inhibition test (Test Example 1); format: biochemical; details: read-out: Rate of inhibition (%) at 1 μM
T1 construct: Full-length human SPT1, human SPT2 and human ssSPTa used; made in house; host or cells: FreeStyle 293 cells (pcDNA3.1 vectors, cotransfection); crude membrane fraction used
T1 sequence (O15269 1-473): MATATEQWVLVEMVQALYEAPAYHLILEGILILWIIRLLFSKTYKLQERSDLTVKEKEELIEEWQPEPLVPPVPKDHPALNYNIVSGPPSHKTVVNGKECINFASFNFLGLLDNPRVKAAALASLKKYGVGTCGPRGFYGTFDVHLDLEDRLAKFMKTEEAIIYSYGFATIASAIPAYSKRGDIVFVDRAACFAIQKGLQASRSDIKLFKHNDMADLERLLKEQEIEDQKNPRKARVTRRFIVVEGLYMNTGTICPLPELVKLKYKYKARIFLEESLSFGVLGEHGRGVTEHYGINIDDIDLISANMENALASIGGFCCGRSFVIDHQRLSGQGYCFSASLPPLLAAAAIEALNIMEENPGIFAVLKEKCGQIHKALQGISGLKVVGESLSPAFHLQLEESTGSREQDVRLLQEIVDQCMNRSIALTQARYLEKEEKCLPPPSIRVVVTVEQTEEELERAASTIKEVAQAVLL
T1 sequence (O15270 1-562): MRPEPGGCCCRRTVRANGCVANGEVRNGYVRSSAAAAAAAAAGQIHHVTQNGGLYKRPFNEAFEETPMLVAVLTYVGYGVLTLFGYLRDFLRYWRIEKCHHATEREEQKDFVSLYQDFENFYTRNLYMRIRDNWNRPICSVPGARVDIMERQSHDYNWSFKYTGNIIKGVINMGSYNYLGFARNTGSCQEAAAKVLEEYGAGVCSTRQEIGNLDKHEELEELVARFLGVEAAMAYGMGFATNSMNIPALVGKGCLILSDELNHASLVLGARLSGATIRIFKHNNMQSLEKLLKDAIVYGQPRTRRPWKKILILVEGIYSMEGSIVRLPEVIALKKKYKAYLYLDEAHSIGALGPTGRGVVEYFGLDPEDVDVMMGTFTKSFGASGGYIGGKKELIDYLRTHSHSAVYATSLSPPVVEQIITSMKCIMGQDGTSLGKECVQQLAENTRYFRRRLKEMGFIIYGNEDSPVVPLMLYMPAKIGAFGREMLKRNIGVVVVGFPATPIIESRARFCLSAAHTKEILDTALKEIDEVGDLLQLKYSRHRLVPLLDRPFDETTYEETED
T1 sequence (Q969W0 1-71 partner): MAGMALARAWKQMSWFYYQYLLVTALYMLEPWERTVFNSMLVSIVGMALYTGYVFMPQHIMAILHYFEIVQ
Experimental: After culture for 3 days, the cells were recovered and frozen at −80° C. to obtain expressing cells. The frozen cells were suspended in a 50 mM Hepes buffer (pH 7.5) containing 250 mM sucrose, 5 mM ethylenediaminetetraacetic acid (EDTA), 5 mM dithiothreitol (DTT) and Complete, EDTA-free (Roche Applied Science, Penzberg, Upper Bavaria, Germany). The cells were disrupted (on ice, 20,000 rpm, 20 sec×2) using POLYTORON (Central Scientific Commerce, Inc.). After centrifugation at 2000 rpm (850×g) for 10 minutes, the supernatant was recovered. Subsequently, the supernatant was centrifuged at 40,000 rpm (186,010×g) for 60 minutes, and the supernatant was discarded. The pellets were suspended in a 50 mM Hepes buffer (pH 7.5) containing 5 mM EDTA, 5 mM DTT and Complete, EDTA-free, passed through a 40-μm cell strainer and stored at −80° C. The resultant was used as a SPT2-expressing membrane fraction. The protein concentration was determined using CBB Protein Assay with bovine serum albumin used as standards.
5 μL of each test compound was mixed with 10 μL of the 100 μg/mL SPT2-expressing membrane fraction using an assay buffer (100 mM Hepes (pH 8.0) containing 2.5 mM EDTA, 5 mM DTT and 0.01% fatty acid-free bovine serum albumin), and the mixture was left standing at room temperature for 60 minutes. Subsequently, 5 μL of a substrate solution containing 2 mM L-serine and 20 μM palmitoyl CoA was added thereto, and an enzyme reaction was carried out in a 384-well plate using 20 μL in total of the reaction system. After reaction at room temperature for 15 minutes, the reaction was terminated by the addition of 20 μL of a 2% aqueous formic acid solution. Subsequently, 40 μL of acetonitrile containing 600 nM C17-sphinganine (Avanti Polar Lipids, Inc., Alabaster, Ala., U.S.) was added thereto as an internal standard. The reaction sample was subjected to on-line solid-layer extraction using RapidFire 300 (Agilent Technologies Inc., Santa Clara, Calif., U.S.). […] Mass chromatograms were obtained using Analyst software (version 1.5.0, AB SCIEX). Their mass chromatogram areas were respectively calculated, and the rate of inhibition (%) by the test compound was calculated using an area ratio (the value of the reaction product was divided by the value of the internal standard).

[2] = test system: lung adenocarcinoma cell line HCC4006; assay: HCC4006 cell growth inhibition test (Test Example 2); format: cell-based; details: Homo sapiens, 120 h; 1 μM test compound; HCC4006 cells, culture for 5 days, CellTiter-Glo; read-out: Rate of inhibition (%) at 1 μM
Experimental: A lung adenocarcinoma cell line HCC4006 (ATCC) was cultured using an RPMI-1640 medium (Wako Pure Chemical Industries, Ltd.) containing 10% fetal bovine serum and penicillin/streptomycin. 250 cells per well were inoculated into 40 μL of a medium in a 384-well culture plate. On the next day, 10 μL of each test compound was added to the cells. After culture for 5 days, the medium was discarded, and 30 μL of CellTiter-Glo Luminescent Cell Viability Assay solution (Promega Corp., Fitchburg, Wis., U.S.) was added to each well. Light emission signals were measured using EnVision (PerkinElmer, Inc., Waltham, Mass., U.S.).
The rate of inhibition (%) by the test compound was calculated according to the following expression: Rate of inhibition (%)=(1−(Count of the test compound−Blank)/(Control−Blank))×100
In the above expression, a count under compound non-addition conditions was indicated as a control, and a count under cell-free conditions was indicated as a blank.

Row | Structure (SMILES) | inhibition at 1 µM [1] | inhibition at 1 µM [2]
1 | Cc1cc(C(=O)N2CC[C@@H](NC(=O)c3ncccc3C(F)(F)F)[C@@H](c3ccccc3)C2)cc2nccnc12 [Example 74B, N-((3S,4R)-1-((8-Methylquinoxalin-6-yl)carbonyl)-3-phenylpiperidin-4-yl)-3-(trifluoromethyl)pyridine-2-carboxamide] | 100% | 45%
2 | COc1cc(C(=O)N2CCC(NC(=O)c3ccccc3Cl)c3c2cnn3C)cnc1OC (centres unmarked) [Example 80A, 2-chloro-N-(4-((5,6-dimethoxypyridin-3-yl)carbonyl)-1-methyl-4,5,6,7-tetrahydro-1H-pyrazolo[4,3-b]pyridin-7-yl)benzamide] | 99% | 44%
3 | COc1ncc(C(=O)N2CCC(NC(=O)c3ccccc3Cl)c3c2cnn3C)cc1Cl (centres unmarked) [Example 84A, 2-chloro-N-(4-((5-chloro-6-methoxypyridin-3-yl)carbonyl)-1-methyl-4,5,6,7-tetrahydro-1H-pyrazolo[4,3-b]pyridin-7-yl)benzamide] | 98% | 32%
4 | COc1ncc(C(=O)N2CCC(NC(=O)c3ccccc3C(F)(F)F)c3c2cnn3C)cc1Cl (centres unmarked) [Example 85A, N-(4-((5-chloro-6-methoxypyridin-3-yl)carbonyl)-1-methyl-4,5,6,7-tetrahydro-1H-pyrazolo[4,3-b]pyridin-7-yl)-2-(trifluoromethyl)benzamide] | 99% | 39%
5 | Cn1nc(C(F)(F)F)cc1C(=O)N[C@@H]1CCN(C(=O)c2cc(Cl)c3nccnc3c2)C[C@@H]1c1ccc(F)cc1 [Example 96B, N-((3S,4R)-1-((8-chloroquinoxalin-6-yl)carbonyl)-3-(4-fluorophenyl)piperidin-4-yl)-1-methyl-3-(trifluoromethyl)-1H-pyrazole-5-carboxamide] | 102% | 49%
6 | COc1ccc(C(=O)N2CCC(NC(=O)c3ncccc3C(F)(F)F)c3c2cnn3C)cc1OC (centres unmarked) [Example 100A, N-(4-(3,4-dimethoxybenzoyl)-1-methyl-4,5,6,7-tetrahydro-1H-pyrazolo[4,3-b]pyridin-7-yl)-3-(trifluoromethyl)pyridine-2-carboxamide] | 97% | 39%
7 | CS(=O)(=O)c1ccc(C(=O)N2CC[C@@H](NC(=O)c3ccccc3OC(F)(F)F)[C@@H](c3ccccc3)C2)cc1Cl [Example 102B, N-((3S,4R)-1-(3-chloro-4-(methylsulfonyl)benzoyl)-3-phenylpiperidin-4-yl)-2-(trifluoromethoxy)benzamide] | 100% | 46%
8 | Cn1cnc2ccc(C(=O)N3CC[C@@H](NC(=O)c4ccccc4OC(F)(F)F)[C@@H](c4ccccc4)C3)cc21 [Example 104B, N-((3S,4R)-1-((1-methyl-1H-benzimidazol-6-yl)carbonyl)-3-phenylpiperidin-4-yl)-2-(trifluoromethoxy)benzamide] | 101% | 53%
9 | COc1ncc(C(=O)N2CCC(NC(=O)c3ccc(Cl)cc3C(F)(F)F)c3c2cnn3CC(F)F)cc1Cl (centres unmarked) [Example 126A, 4-Chloro-N-(4-((5-chloro-6-methoxypyridin-3-yl)carbonyl)-1-(2,2-difluoroethyl)-4,5,6,7-tetrahydro-1H-pyrazolo[4,3-b]pyridin-7-yl)-2-(trifluoromethyl)benzamide] | 101% | 45%
10 | Cn1ncc(C(=O)N[C@@H]2CCN(C(=O)c3ccc4nccnc4c3)C[C@@H]2c2ccccc2)c1Cl [Example 132B, 5-chloro-1-methyl-N-((3S,4R)-3-phenyl-1-(quinoxalin-6-ylcarbonyl)piperidin-4-yl)-1H-pyrazole-4-carboxamide] | 98% | 45%
11 | COc1cc(C(=O)N2CCC(NC(=O)c3ccccc3OC(F)(F)F)c3c2cnn3C)cnc1OC (centres unmarked) [Example 133A, N-(4-((5,6-Dimethoxypyridin-3-yl)carbonyl)-1-methyl-4,5,6,7-tetrahydro-1H-pyrazolo[4,3-b]pyridin-7-yl)-2-(trifluoromethoxy)benzamide] | 101% | 50%
12 | COc1cc(C(=O)N2CC[C@@H](NC(=O)c3cnccc3C(F)(F)F)[C@@H](c3ccccc3)C2)cnc1OC [Example 139B, N-((3S,4R)-1-((5,6-dimethoxypyridin-3-yl)carbonyl)-3-phenylpiperidin-4-yl)-4-(trifluoromethyl)nicotinamide] | 100% | 52%
13 | COc1cc(C(=O)N2CC[C@@H](NC(=O)c3cccnc3C(F)(F)F)[C@@H](c3ccccc3)C2)cnc1OC [Example 140B, N-((3S,4R)-1-((5,6-dimethoxypyridin-3-yl)carbonyl)-3-phenylpiperidin-4-yl)-2-(trifluoromethyl)nicotinamide] | 101% | 49%
14 | COc1cc(C(=O)N2CC[C@@H](NC(=O)c3ccccc3S(C)(=O)=O)[C@@H](c3ccccc3)C2)cnc1OC [Example 141B, N-((3S,4R)-1-((5,6-dimethoxypyridin-3-yl)carbonyl)-3-phenylpiperidin-4-yl)-2-(methylsulfonyl)benzamide] | 101% | 52%
15 | COc1cc(C(=O)N2CC[C@@H](NC(=O)c3cnn(C)c3Cl)[C@@H](c3ccccc3)C2)cnc1OC [Example 150B, 5-chloro-N-((3S,4R)-1-((5,6-dimethoxypyridin-3-yl)carbonyl)-3-phenylpiperidin-4-yl)-1-methyl-1H-pyrazole-4-carboxamide] | 101% | 47%
16 | COc1cc(C(=O)N2CC[C@@H](NC(=O)c3cc(C)nn3C)[C@@H](c3ccccc3)C2)cnc1OC [Example 151B, N-((3S,4R)-1-((5,6-dimethoxypyridin-3-yl)carbonyl)-3-phenylpiperidin-4-yl)-1,3-dimethyl-1H-pyrazole-5-carboxamide] | 99% | 51%
